Results as given in patent US20080107661A1, “MUC1 and ABL” (Dana-Farber Cancer Institute, Inc., priority 2006, published 2008).

Legend:
Assay type in all cases: cell-based, human
[1] = system: c-Abl; test: Nuclear and cytosolic c-Abl in HeLa/vector and HeLa/MUC1 cells after genotoxic agents (subcellular fractionation, immunoblot); conditions: 2 hours
Text: (§1) Cell culture. Human HeLa cervical cancer cells, HCT116/vector (HCT116 colorectal carcinoma cells stably transfected with an empty vector), HCT116/MUC1 (HCT116 colorectal carcinoma cells stably transfected with an expression vector encoding a MUC1 polypeptide), HCT116/MUC1(Y46F) (HCT116 colorectal carcinoma cells stably transfected with an expression vector encoding a mutant MUC1 polypeptide containing an amino acid substitution at position 46 changing a tyrosine (Y) to phenylalanine (F)) colon cancer cells (Ren et al., (2002) J. Biol. Chem. 277: 17616-17622) and 293 cells were cultured in Dulbecco's modified medium with 10% heat-inactivated fetal bovine serum, 100 units/ml penicillin, 100 μg/ml streptomycin and 2 mM L-glutamine. Human ZR-75-1/vector (ZR-75-1 breast cancer cells stably transfected with an empty vector) and ZR-75-1/MUC1siRNA (ZR-75-1 breast cancer cells stably transfected with an expression vector encoding an siRNA specific for MUC1) breast cancer cells (Ren et al., (2004) Cancer Cell 5:163-175) were grown in RPMI1640 medium containing 10% heat-inactivated fetal bovine serum and antibiotics. Cells were treated with 1 μM adriamycin (ADR; Calbiochem), 100 μM cisplatin (CDDP; Sigma) or 10 μM STI571 (Gleevec; Novartis, Basel, Switzerland).
(§2) Subcellular fractionation. Nuclear fractions were prepared as described (Kharbanda et al., (1996) Cancer Res. 56:3617-3621). Cytosolic fractions were prepared as described (Hill et al., (2004) EMBO J. 23:2134-2145). Cell membrane fractions were prepared with the Plasma Membrane Extraction Kit (BioVision Research Products, Mountain View, Calif.). Mitochondria were purified as described (Ren et al., (2004) Cancer Cell 5:163-175; Ren et al., (2006) Oncogene 25:20-31).
(§3) Immunoprecipitations and immunoblot analysis. Cell lysates were prepared as described (Kharbanda et al., (1995) Nature 376:785-788); Yoshida et al., (2005) Nat. Cell Biol. 7:278-285). Soluble proteins were incubated with anti-MUC1-N (Kufe et al., (1984) Hybridoma 3:223-232), anti-MUC1-C (Ab5; Neomarker, Montreal, Quebec), anti-Flag (Sigma, St. Louis, Mo.), anti-c-Abl (Ab3; Oncogene, San Diego, Calif.) or anti-14-3-3 (Abcam Inc., Cambridge, Mass.) antibodies for 2 hours at 4° C., followed by precipitation with protein G-Sepharose beads for 1 hour. […] Intensity of the signals was determined by densitometric scanning. Statistical significance was determined by the Student's t-test.

[2] = system: c-Abl; test: Nuclear targeting of c-Abl in HCT116/vector, HCT116/MUC1 and mutant cells after CDDP
Text: as §1, §2, §3

[3] = system: c-Abl; test: Analysis of c-Abl kinase activity (anti-c-Abl immunoprecipitates, Crk(120-225), [γ-32P]ATP); conditions: HCT116 cells; CDDP, 1 hour
Method: Analysis of c-Abl kinase activity. Nuclear lysates were immunoprecipitated with anti-c-Abl (K-12) antibodies as described (Kharbanda et al., (1997) Nature 386:732-735). The precipitates were resuspended in kinase buffer (20 mM HEPES, pH 7.4, 10 mM MgCl2) containing [γ-^32P]ATP, GST-Crk(120-225) for 20 minutes at 30° C. The reaction products were analyzed by SDS-PAGE and autoradiography.

[4] = system: MUC1-C; test: Nuclear MUC1-C levels in HCT116/MUC1 cells after CDDP (immunoblot, densitometric scanning); conditions: CDDP, 0, 1, 2 and 4 hours, over untreated cells
Method: as §3, with “Subcellular fractionation. Nuclear fractions were prepared as described (Kharbanda et al., (1996) Cancer Res. 56:3617-3621). Cytosolic fractions were prepared as described (Hill et al., (2004) EMBO J. 23:2134-2145). Cell membrane fractions were prepared with the Plasma Membrane Extraction Kit (BioVision Research Products, Mountain View, Calif.). Mitochondria were purified as described (Ren et al., (2004) Cancer Cell 5:163-175; Ren et al., (2006) Oncogene 25:20-31). Immunoprecipitations” for “Immunoprecipitations”

[NH2][Pt]([NH2])([Cl])[Cl] [CDDP, cisplatin]
cytosolic c-Abl ([1]; HeLa/vector cells, CDDP): decrease in cytosolic c-Abl | nuclear targeting of c-Abl ([1]; HeLa/vector versus HeLa/MUC1 cells, 100 μM CDDP): MUC1 attenuates nuclear targeting of c-Abl | CDDP-induced targeting of cytosolic c-Abl to the nucleus ([2]; HCT116/MUC1(Y46F) cells, CDDP, 0, 2 or 4 hours): blocked CDDP-induced targeting of cytosolic c-Abl to the nucleus | effect of MUC1(Y60F) on CDDP-induced targeting of c-Abl to the nucleus ([2]; HCT116/MUC1(Y60F) cells, CDDP, 2 and 4 hours): little if any effect | nuclear targeting of c-Abl ([2]; HCT116/MUC1 cells, CDDP, 2 and 4 hours): blocked nuclear targeting of c-Abl | nuclear targeting of c-Abl ([2]; HCT116/vector cells, CDDP, 2 and 4 hours): c-Abl was targeted to the nucleus | c-Abl kinase activity [3]: induction of c-Abl activity | increase in nuclear MUC1-C levels [4]: two-fold
